Measurements reported in ChEMBL document CHEMBL5500396, “Discovery, Multiparametric Optimization, and Solid-State Driven Identification of CHF-6550, a Novel Soft Dual Pharmacology Muscarinic Antagonist and β2 Agonist (MABA) for the Inhaled Treatment of Respiratory Diseases” (J Med Chem, 2024).

Tests used:
Trachea = test: Inhibition of carbachol-induced smooth muscle contraction in male albino Dunkin-Hartley guinea pig trachea; details: Cavia porcellus, read-out: pIC50 (converted)
[1] = target: Beta-2 adrenergic receptor (Homo sapiens, UniProt P07550)
Description: Displacement of [125I]-Cyanopindolol from human beta2 adrenoceptor assessed as inhibition constant incubated for 1 hrs by Microbeta scintillation counter

[2] = target: Muscarinic acetylcholine receptor M3 (Cavia porcellus, UniProt Q8VH26); test: Antagonist activity at M3 receptor in male albino Dunkin-Hartley guinea pig trachea assessed as inhibition of carbachol-induced smooth muscle contraction in presence of propranolol
[3] = target: Muscarinic acetylcholine receptor M3 (Homo sapiens, UniProt P20309)
Description: Displacement of Scopolamine methyl chloride,[N-methyl-3H] from human muscarinic M3 receptor assessed as inhibition constant incubated for 2 hrs by Microbeta scintillation counter

[4] = target: Beta-2 adrenergic receptor (Cavia porcellus, UniProt Q8K4Z4); test: Agonist activity at beta2 adrenoceptor in male albino Dunkin-Hartley guinea pig trachea assessed as inhibition of histamine induced smooth muscle contraction
in vitro [5] = details: rat, plasma
Description: Stability in rat plasma assessed as half-life at 5 uM incubated for 120 mins by LC-MS/MS analysis

in vitro [6] = details: human, plasma
Description: Stability in human plasma assessed as half-life at 5 uM incubated for 120 mins by LC-MS/MS analysis

in vitro [7] = details: human, lung S9 fraction
Description: Stability in human lung S9 fraction assessed as half-life at 1 uM incubated for 60 mins by LC-MS/MS analysis

in vitro [8] = details: rat, lung S9 fraction
Description: Stability in rat lung S9 fraction assessed as half-life at 1 uM incubated for 60 mins by LC-MS/MS analysis

in vitro [9] = details: human, hepatocytes
Description: Metabolic stability in human hepatocytes assessed as clearance measured per 10^6 cells at 1 uM incubated for 90 mins by LC-MS/MS analysis

in vitro [10] = details: rat, hepatocytes
Description: Metabolic stability in rat hepatocytes assessed as clearance measured per 10^6 cells at 1 uM incubated for 90 mins by LC-MS/MS analysis

in vitro [11] = details: guinea pig, plasma
Description: Stability in guinea pig plasma assessed as half-life at 5 uM incubated for 120 mins by LC-MS/MS analysis

in vitro [12] = details: guinea pig, lung S9 fraction
Description: Stability in guinea pig lung S9 fraction assessed as half-life at 1 uM incubated for 60 mins by LC-MS/MS analysis

Cavia porcellus [13] = test: Inhibition of acetylcholine induced bronchoconstriction in male albino Dunkin-Hartley guinea pig model at 3 nmol/kg, IT(Intratracheal) preadministered with compound followed by acetylcholine addition at 5 to 30 mins and measured 1 hrs post compound treatment relative to control; details: read-out: INH
Cavia porcellus [14] = organism: Cavia porcellus; test: animal or person; details: albino Dunkin-Hartley, 1 h, read-out: INH
Description: Inhibition of acetylcholine induced bronchoconstriction in male albino Dunkin-Hartley guinea pig model at 3 nmol/kg, IT(Intratracheal) preadministered with compound followed by acetylcholine addition at 5 to 30 mins in presence of ICI-118551 and measured 1 hrs post compound treatment relative to control

Cavia porcellus [15] = test: Inhibition of histamine induced bronchoconstriction in male albino Dunkin-Hartley guinea pig model at 3 nmol/kg, IT(Intratracheal) preadministered with compound followed by histamine addition at 5 to 30 mins and measured 1 hrs post compound treatment relative to control; details: read-out: INH
[16] = Protein binding in human plasma at 5 uM incubated for 4 hrs by LC-MS/MS analysis
[17] = target: Voltage-dependent L-type calcium channel subunit alpha-1C (Homo sapiens, UniProt Q13936)
Description: Inhibition of human Cav1.2

[18] = target: Sodium channel protein type 5 subunit alpha (Homo sapiens, UniProt Q14524)
Description: Inhibition of human Nav1.5

[19] = target: Voltage-gated inwardly rectifying potassium channel KCNH2 (Homo sapiens, UniProt Q12809)
Description: Inhibition of human ERG by patch clamp assay

Chain of Muscarinic acetylcholine receptor M3 (Homo sapiens, UniProt P20309) (P20309 whole entry): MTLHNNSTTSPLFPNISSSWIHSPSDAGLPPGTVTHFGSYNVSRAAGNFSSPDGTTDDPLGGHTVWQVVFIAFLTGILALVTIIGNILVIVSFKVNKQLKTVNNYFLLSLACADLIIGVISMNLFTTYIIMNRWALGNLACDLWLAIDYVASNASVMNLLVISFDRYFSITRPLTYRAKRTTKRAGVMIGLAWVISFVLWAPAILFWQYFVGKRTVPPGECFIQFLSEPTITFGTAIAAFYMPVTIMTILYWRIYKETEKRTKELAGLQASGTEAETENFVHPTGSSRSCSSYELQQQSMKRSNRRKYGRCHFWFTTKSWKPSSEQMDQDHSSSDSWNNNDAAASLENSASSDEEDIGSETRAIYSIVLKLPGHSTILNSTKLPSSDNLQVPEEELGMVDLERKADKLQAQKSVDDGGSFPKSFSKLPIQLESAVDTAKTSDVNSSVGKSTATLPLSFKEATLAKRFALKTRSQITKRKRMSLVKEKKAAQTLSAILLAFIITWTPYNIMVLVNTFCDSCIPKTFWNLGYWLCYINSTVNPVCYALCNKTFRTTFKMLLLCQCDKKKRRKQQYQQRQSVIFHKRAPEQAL
Chain of Muscarinic acetylcholine receptor M3 (Cavia porcellus, UniProt Q8VH26) (Q8VH26 whole entry): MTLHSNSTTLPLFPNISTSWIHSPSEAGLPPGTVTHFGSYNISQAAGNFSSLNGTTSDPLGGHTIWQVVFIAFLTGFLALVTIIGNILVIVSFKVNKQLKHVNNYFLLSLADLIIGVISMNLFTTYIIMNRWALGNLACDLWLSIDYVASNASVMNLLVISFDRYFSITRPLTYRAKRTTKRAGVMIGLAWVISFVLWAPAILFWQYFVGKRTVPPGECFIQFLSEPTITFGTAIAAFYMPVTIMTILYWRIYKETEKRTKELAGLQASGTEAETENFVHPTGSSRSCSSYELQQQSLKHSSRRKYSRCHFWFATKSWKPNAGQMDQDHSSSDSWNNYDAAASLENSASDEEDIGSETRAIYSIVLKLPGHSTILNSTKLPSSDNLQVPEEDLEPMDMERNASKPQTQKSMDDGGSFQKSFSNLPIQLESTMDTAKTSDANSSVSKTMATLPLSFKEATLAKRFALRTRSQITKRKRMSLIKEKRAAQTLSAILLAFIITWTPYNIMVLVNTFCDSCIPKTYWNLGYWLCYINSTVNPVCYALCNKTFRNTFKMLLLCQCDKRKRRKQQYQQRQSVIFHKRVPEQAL
Chain of Beta-2 adrenergic receptor (Cavia porcellus, UniProt Q8K4Z4) (Q8K4Z4 whole entry): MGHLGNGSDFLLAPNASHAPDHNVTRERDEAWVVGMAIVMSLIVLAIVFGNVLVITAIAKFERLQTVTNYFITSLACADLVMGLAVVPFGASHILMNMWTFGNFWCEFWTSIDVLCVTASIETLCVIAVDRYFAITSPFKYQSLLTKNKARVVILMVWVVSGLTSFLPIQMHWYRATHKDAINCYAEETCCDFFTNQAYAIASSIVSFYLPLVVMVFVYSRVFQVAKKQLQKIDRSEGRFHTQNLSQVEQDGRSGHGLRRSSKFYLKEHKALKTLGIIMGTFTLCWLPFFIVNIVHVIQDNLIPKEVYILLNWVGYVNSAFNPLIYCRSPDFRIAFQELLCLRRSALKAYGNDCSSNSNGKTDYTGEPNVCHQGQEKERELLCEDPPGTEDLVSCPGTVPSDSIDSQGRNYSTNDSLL
Chain of Beta-2 adrenergic receptor (Homo sapiens, UniProt P07550) (P07550 whole entry): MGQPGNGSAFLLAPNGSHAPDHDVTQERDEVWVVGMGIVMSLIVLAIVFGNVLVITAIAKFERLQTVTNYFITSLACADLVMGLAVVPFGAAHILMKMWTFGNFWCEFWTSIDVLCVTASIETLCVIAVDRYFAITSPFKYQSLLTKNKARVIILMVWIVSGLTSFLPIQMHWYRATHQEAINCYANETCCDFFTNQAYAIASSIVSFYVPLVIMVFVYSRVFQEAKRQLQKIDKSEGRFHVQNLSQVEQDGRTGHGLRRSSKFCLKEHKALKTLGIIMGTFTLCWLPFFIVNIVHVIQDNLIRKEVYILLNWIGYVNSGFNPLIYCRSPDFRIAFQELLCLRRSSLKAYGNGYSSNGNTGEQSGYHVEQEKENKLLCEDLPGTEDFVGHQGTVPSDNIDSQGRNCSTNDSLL
Chain of Sodium channel protein type 5 subunit alpha (Q14524 whole entry): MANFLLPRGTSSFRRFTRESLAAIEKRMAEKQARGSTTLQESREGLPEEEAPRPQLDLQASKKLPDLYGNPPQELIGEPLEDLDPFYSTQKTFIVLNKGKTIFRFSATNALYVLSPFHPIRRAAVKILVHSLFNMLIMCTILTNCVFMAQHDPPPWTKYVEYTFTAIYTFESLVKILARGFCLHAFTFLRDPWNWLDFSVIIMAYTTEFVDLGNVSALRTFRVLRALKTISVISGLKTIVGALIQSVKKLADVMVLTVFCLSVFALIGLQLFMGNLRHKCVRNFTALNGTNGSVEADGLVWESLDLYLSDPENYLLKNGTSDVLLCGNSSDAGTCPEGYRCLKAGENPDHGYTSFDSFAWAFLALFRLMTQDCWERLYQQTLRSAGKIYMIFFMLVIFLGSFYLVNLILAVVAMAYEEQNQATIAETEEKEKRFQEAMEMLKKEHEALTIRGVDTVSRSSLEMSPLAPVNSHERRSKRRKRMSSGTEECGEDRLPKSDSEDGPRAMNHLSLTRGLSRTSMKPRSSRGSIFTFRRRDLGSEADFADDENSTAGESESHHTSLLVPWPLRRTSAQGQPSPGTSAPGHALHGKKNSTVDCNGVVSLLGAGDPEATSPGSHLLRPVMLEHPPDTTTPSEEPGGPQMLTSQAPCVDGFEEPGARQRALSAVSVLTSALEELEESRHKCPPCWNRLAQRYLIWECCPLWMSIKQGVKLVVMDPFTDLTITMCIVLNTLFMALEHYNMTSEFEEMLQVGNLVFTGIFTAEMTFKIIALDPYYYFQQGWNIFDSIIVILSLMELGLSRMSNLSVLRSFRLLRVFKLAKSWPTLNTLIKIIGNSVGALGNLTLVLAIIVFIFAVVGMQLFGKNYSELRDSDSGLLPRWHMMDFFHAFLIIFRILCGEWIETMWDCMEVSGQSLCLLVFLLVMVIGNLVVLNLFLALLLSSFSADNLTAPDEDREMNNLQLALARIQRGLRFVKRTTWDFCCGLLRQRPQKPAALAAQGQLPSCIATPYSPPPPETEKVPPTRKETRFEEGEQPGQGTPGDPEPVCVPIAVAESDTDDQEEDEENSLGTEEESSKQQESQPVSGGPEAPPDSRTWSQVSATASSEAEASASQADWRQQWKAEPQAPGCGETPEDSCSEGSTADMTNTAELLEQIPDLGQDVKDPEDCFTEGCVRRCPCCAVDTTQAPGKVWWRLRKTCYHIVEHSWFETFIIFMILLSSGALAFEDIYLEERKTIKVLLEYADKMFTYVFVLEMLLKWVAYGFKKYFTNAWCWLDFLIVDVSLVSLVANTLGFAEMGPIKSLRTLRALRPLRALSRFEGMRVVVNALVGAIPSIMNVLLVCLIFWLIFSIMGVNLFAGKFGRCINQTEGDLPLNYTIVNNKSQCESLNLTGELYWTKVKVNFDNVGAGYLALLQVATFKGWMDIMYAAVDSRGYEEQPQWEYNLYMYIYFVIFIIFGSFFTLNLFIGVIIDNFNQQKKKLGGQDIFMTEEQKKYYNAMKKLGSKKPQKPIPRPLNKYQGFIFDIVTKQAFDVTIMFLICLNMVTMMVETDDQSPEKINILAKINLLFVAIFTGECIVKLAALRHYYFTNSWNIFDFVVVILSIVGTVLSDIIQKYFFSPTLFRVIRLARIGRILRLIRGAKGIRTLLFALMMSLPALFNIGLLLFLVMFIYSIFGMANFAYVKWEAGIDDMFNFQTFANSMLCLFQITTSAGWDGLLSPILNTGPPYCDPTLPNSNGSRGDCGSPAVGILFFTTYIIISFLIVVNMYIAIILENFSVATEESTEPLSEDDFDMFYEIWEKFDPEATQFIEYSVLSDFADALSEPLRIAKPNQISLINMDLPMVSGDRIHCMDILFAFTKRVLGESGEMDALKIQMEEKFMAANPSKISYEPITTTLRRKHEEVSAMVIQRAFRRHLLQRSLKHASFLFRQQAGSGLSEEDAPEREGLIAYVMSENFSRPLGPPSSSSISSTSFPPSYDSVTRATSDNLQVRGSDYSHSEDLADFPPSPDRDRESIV

SMILES	IC50 (Trachea) [nM]	Ki [1] [nM]	IC50 [2] [nM]	Ki [3] [nM]	IC50 [4] [nM]	half-life at 2 h, 5 µM (in vitro [6]) [h]	further results
O=C(N[C@@H](c1ccccc1)c1cccc(OCc2cccc(C(=O)NCCCCNC[C@H](O)c3ccc(O)c4[nH]c(=O)ccc34)c2)c1)O[C@H]1CN2CCC1CC2	0.794	0.0126	0.794	0.0631	1		
O=C(NCCCCNC[C@H](O)c1ccc(O)c2[nH]c(=O)ccc12)c1ccc(CNC2(C(=O)OCC3CCN(Cc4ccccc4)CC3)CCc3ccccc32)s1 (mixture of isomers; 32)	0.0501	0.0631	1	3.98	0.0251	> 2.5	half-life at 2 h, 5 µM (in vitro [5]; t1/2): 0.5 h; half-life at 1 h, 1 µM (in vitro [7]; t1/2): 1.62 h; half-life at 1 h, 1 µM (in vitro [8]; t1/2): 2.35 h; hepatocyte CLint at 1.5 h, 1 µM (in vitro [9]; CLH): 13 µL/min/1e6 cells; hepatocyte CLint at 1.5 h, 1 µM (in vitro [10]; CLH): 44 µL/min/1e6 cells
O=C(c1ccc(CCNC[C@H](O)c2ccc(O)c3[nH]c(=O)ccc23)cc1)N1CCC(c2cccc([C@](O)(C(=O)OCC3CCN(Cc4ccccc4)CC3)c3ccccc3)c2)CC1		0.398	2	0.0631	0.631	> 2.5	half-life at 2 h, 5 µM (in vitro [11]): 0.267 h; half-life at 2 h, 5 µM (in vitro [5]): 0.533 h; half-life at 1 h, 1 µM (in vitro [7]): 3 h; half-life at 1 h, 1 µM (in vitro [12]): 1.9 h; half-life at 1 h, 1 µM (in vitro [8]): 2.47 h; hepatocyte CLint at 1.5 h, 1 µM (in vitro [9]): 13 µL/min/1e6 cells; hepatocyte CLint at 1.5 h, 1 µM (in vitro [10]): 36 µL/min/1e6 cells
O=C(NCCCCNC[C@H](O)c1ccc(O)c2[nH]c(=O)ccc12)c1ccc(CNC2(C(=O)OCC3CCN(Cc4ccccc4)CC3)CCc3ccccc32)s1 (mixture of isomers; 33)		0.0316	0.794	2	0.0631		inhibition in vivo at 0.003 µmol/kg (Cavia porcellus [13]): 96%; inhibition in vivo at 0.003 µmol/kg (Cavia porcellus [14]): 60%; inhibition in vivo at 0.003 µmol/kg (Cavia porcellus [15]): 83%; fraction unbound at 4 h, 5 µM [16]: 0.06
O=C(NCCCOc1cccc([C@](O)(C(=O)O)c2ccccc2)c1)c1ccc(CNC[C@H](O)c2ccc(O)c3[nH]c(=O)ccc23)cc1				> 50.1			IC50 [17]: > 150000 nM; IC50 [18]: > 150000 nM; IC50 [19]: > 150000 nM
O=C(N[C@@H](c1ccccc1)c1cccc(OCc2ccc(C(=O)NCCCNC[C@H](O)c3ccc(O)c4[nH]c(=O)ccc34)cc2)c1)O[C@@H]1CN2CCC1CC2	0.158	0.0126	0.2	0.1	0.158		
O=C(c1ccc(OCc2ccc(CNC[C@H](O)c3ccc(O)c4[nH]c(=O)ccc34)cc2)cc1)N1CC(C(=O)OC2CN3CCC2CC3)(c2ccccc2)C1 (single isomer, unassigned)	1	0.631	1	0.316	1		
COc1cc(C(=O)N2CCC(c3cccc([C@](O)(C(=O)OCC4CCN(Cc5ccccc5)CC4)c4ccccc4)c3)CC2)ccc1CNC[C@H](O)c1ccc(O)c2[nH]c(=O)ccc12		0.501		0.631		> 2.5	half-life at 2 h, 5 µM (in vitro [11]): 0.583 h; half-life at 2 h, 5 µM (in vitro [5]): > 2.5 h; hepatocyte CLint at 1.5 h, 1 µM (in vitro [9]): 28 µL/min/1e6 cells; hepatocyte CLint at 1.5 h, 1 µM (in vitro [10]): 29 µL/min/1e6 cells
